Measurements: the supplement of paper PMC10307832

Legend:
Assay in all cases: relative viability (nuclei count vs DMSO), 5 days (fraction); higher = more cells survive
[1] = tested on: NCI-H520
How it was run: (§1)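 Lung cancer cell lines, seeded in 1536-well plates, were treated the following day by pin tool with a single drug or with five library-drug doses (not always all listed) in √10 steps on top of a fixed anchor-drug dose. Cells were fixed and nuclei stained in one step after 5 days, and nuclei were counted. Relative viability is the nuclei count for treated wells divided by that for vehicle wells, reported as medians of duplicate plates.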

[2] = tested on: PC-3 [JPC-3]
How it was run: as §1

[3] = tested on: NCI-H838
How it was run: as §1

[4] = tested on: NCI-H650
How it was run: as §1

[5] = tested on: NCI-H1944
How it was run: as §1

[6] = tested on: NCI-H1651
How it was run: as §1

[7] = tested on: NCI-H1623
How it was run: as §1

[8] = tested on: RERF-LC-KJ
How it was run: as §1

[9] = tested on: A549
How it was run: as §1

Work on `COc1cc2nccc(Oc3ccc(NC(=O)Nc4cc(C)on4)c(Cl)c3)c2cc1OC` [Tivozanib] + CCNC(=O)c1noc(-c2cc(C(C)C)c(O)cc2O)c1-c1ccc(CN2CCOCC2)cc1 [Luminespib] (partner 0.01 µM) yielded a relative viability ([1]; first compound 0.005 µM) of 0.287, a relative viability ([1]; first compound 0.01581 µM) of 0.219 and a relative viability ([1]; first compound 0.05 µM) of 0.222. The relative viability ([1]; first compound 0.1581 µM) was 0.328, the relative viability ([1]; first compound 0.5 µM) was 0.245 and the relative viability ([2]; first compound 0.005 µM) was 0.744. The relative viability ([2]; first compound 0.01581 µM) was 0.636, the relative viability ([2]; first compound 0.05 µM) was 0.751 and the relative viability ([2]; first compound 0.1581 µM) was 0.716. For the same compound, the relative viability ([2]; first compound 0.5 µM) was 0.766, the relative viability ([3]; first compound 0.005 µM) was 0.196 and the relative viability ([3]; first compound 0.01581 µM) was 0.265. It also gave a relative viability ([3]; first compound 0.05 µM) of 0.501, a relative viability ([3]; first compound 0.5 µM) of 0.237 and a relative viability ([4]; first compound 0.005 µM) of 0.807. It also gave a relative viability ([4]; first compound 0.01581 µM) of 0.784, a relative viability ([4]; first compound 0.05 µM) of 0.795 and a relative viability ([4]; first compound 0.1581 µM) of 0.692. The relative viability ([4]; first compound 0.5 µM) was 0.708, the relative viability ([5]; first compound 0.005 µM) was 0.691 and the relative viability ([5]; first compound 0.01581 µM) was 0.83. The relative viability ([5]; first compound 0.05 µM) was 0.732, the relative viability ([5]; first compound 0.1581 µM) was 0.625 and the relative viability ([5]; first compound 0.5 µM) was 0.818. For the same compound, the relative viability ([6]; first compound 0.005 µM) was 0.86, the relative viability ([6]; first compound 0.01581 µM) was 0.638 and the relative viability ([6]; first compound 0.05 µM) was 0.842. The relative viability ([6]; first compound 0.1581 µM) was 0.883, the relative viability ([6]; first compound 0.5 µM) was 0.931 and the relative viability ([7]; first compound 0.005 µM) was 0.466. It also gave a relative viability ([7]; first compound 0.01581 µM) of 0.55, a relative viability ([7]; first compound 0.05 µM) of 0.602 and a relative viability ([7]; first compound 0.5 µM) of 0.504. The relative viability ([8]; first compound 0.005 µM) was 1.16, the relative viability ([8]; first compound 0.01581 µM) was 1.29 and the relative viability ([8]; first compound 0.05 µM) was 1.25. It also gave a relative viability ([8]; first compound 0.1581 µM) of 1.25 and a relative viability ([8]; first compound 0.5 µM) of 1.14.
In the case of `COc1cc2nccc(Oc3ccc(NC(=O)Nc4cc(C)on4)c(Cl)c3)c2cc1OC` [Tivozanib] + Cc1nc(Nc2ncc(C(=O)Nc3c(C)cccc3Cl)s2)cc(N2CCN(CCO)CC2)n1 [Dasatinib] (partner 0.075 µM), the relative viability ([1]; first compound 0.005 µM) is reported as 0.183, the relative viability ([1]; first compound 0.01581 µM) is reported as 0.201 and the relative viability ([1]; first compound 0.05 µM) is reported as 0.232. The relative viability ([1]; first compound 0.1581 µM) was 0.175, the relative viability ([1]; first compound 0.5 µM) was 0.182 and the relative viability ([2]; first compound 0.005 µM) was 0.934. The relative viability ([2]; first compound 0.01581 µM) was 1, the relative viability ([2]; first compound 0.05 µM) was 0.983 and the relative viability ([2]; first compound 0.1581 µM) was 0.812. It also gave a relative viability ([2]; first compound 0.5 µM) of 0.951, a relative viability ([3]; first compound 0.005 µM) of 0.212 and a relative viability ([3]; first compound 0.01581 µM) of 0.31. For the same compound, the relative viability ([3]; first compound 0.05 µM) was 0.292, the relative viability ([3]; first compound 0.1581 µM) was 0.307 and the relative viability ([3]; first compound 0.5 µM) was 0.295. It also gave a relative viability ([4]; first compound 0.005 µM) of 0.344, a relative viability ([4]; first compound 0.01581 µM) of 0.509 and a relative viability ([4]; first compound 0.05 µM) of 0.447. For the same compound, the relative viability ([4]; first compound 0.1581 µM) was 0.368, the relative viability ([4]; first compound 0.5 µM) was 0.387 and the relative viability ([5]; first compound 0.005 µM) was 0.236. It also gave a relative viability ([5]; first compound 0.01581 µM) of 0.246, a relative viability ([5]; first compound 0.05 µM) of 0.208 and a relative viability ([5]; first compound 0.1581 µM) of 0.192. For the same compound, the relative viability ([5]; first compound 0.5 µM) was 0.208, the relative viability ([6]; first compound 0.005 µM) was 0.291 and the relative viability ([6]; first compound 0.01581 µM) was 0.437. The relative viability ([6]; first compound 0.05 µM) was 0.457, the relative viability ([6]; first compound 0.1581 µM) was 0.36 and the relative viability ([6]; first compound 0.5 µM) was 0.377. For the same compound, the relative viability ([7]; first compound 0.005 µM) was 0.509, the relative viability ([7]; first compound 0.01581 µM) was 0.56 and the relative viability ([7]; first compound 0.05 µM) was 0.578. For the same compound, the relative viability ([7]; first compound 0.5 µM) was 0.527, the relative viability ([8]; first compound 0.005 µM) was 0.799 and the relative viability ([8]; first compound 0.01581 µM) was 0.887. For the same compound, the relative viability ([8]; first compound 0.05 µM) was 0.788, the relative viability ([8]; first compound 0.1581 µM) was 0.856 and the relative viability ([8]; first compound 0.5 µM) was 0.583.
With `COc1cc2nccc(Oc3ccc(NC(=O)Nc4cc(C)on4)c(Cl)c3)c2cc1OC` [Tivozanib] + N=C(N)NC(=N)NCCc1ccccc1 [Phenformin] (partner 250 µM) the relative viability ([1]; first compound 0.005 µM) was 0.57, the relative viability ([1]; first compound 0.01581 µM) was 0.539 and the relative viability ([1]; first compound 0.05 µM) was 0.631. The relative viability ([1]; first compound 0.1581 µM) was 0.311, the relative viability ([1]; first compound 0.5 µM) was 0.348 and the relative viability ([2]; first compound 0.005 µM) was 0.477. For the same compound, the relative viability ([2]; first compound 0.01581 µM) was 0.468, the relative viability ([2]; first compound 0.05 µM) was 0.516 and the relative viability ([2]; first compound 0.1581 µM) was 0.427. It also gave a relative viability ([2]; first compound 0.5 µM) of 0.481, a relative viability ([3]; first compound 0.005 µM) of 0.538 and a relative viability ([3]; first compound 0.01581 µM) of 0.551. The relative viability ([3]; first compound 0.05 µM) was 0.538, the relative viability ([3]; first compound 0.5 µM) was 0.564 and the relative viability ([4]; first compound 0.005 µM) was 0.395. The relative viability ([4]; first compound 0.01581 µM) was 0.457, the relative viability ([4]; first compound 0.05 µM) was 0.472 and the relative viability ([4]; first compound 0.1581 µM) was 0.39. For the same compound, the relative viability ([4]; first compound 0.5 µM) was 0.333, the relative viability ([5]; first compound 0.005 µM) was 0.189 and the relative viability ([5]; first compound 0.01581 µM) was 0.202. It also gave a relative viability ([5]; first compound 0.05 µM) of 0.208, a relative viability ([5]; first compound 0.1581 µM) of 0.21 and a relative viability ([5]; first compound 0.5 µM) of 0.188. The relative viability ([6]; first compound 0.005 µM) was 0.297, the relative viability ([6]; first compound 0.01581 µM) was 0.425 and the relative viability ([6]; first compound 0.05 µM) was 0.314. For the same compound, the relative viability ([6]; first compound 0.1581 µM) was 0.36, the relative viability ([6]; first compound 0.5 µM) was 0.315 and the relative viability ([9]; first compound 0.005 µM) was 0.171. It also gave a relative viability ([9]; first compound 0.01581 µM) of 0.163, a relative viability ([9]; first compound 0.05 µM) of 0.19 and a relative viability ([9]; first compound 0.1581 µM) of 0.124. It also gave a relative viability ([9]; first compound 0.5 µM) of 0.209, a relative viability ([7]; first compound 0.005 µM) of 0.582 and a relative viability ([7]; first compound 0.01581 µM) of 0.622. The relative viability ([7]; first compound 0.05 µM) was 0.588, the relative viability ([7]; first compound 0.5 µM) was 0.607 and the relative viability ([8]; first compound 0.005 µM) was 0.402. The relative viability ([8]; first compound 0.01581 µM) was 0.375, the relative viability ([8]; first compound 0.05 µM) was 0.468 and the relative viability ([8]; first compound 0.1581 µM) was 0.411. It also gave a relative viability ([8]; first compound 0.5 µM) of 0.382.
